Test results from PubChem BioAssay (NCI).
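Values below derive from 48-hour exposures of cells grown in 96-well plates, with endpoints linearly interpolated between the two concentrations bracketing the appropriate inhibition level. At the TGI there is no net growth.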

How the values were obtained:
Experiment in all cases: DTP human tumour cell line panel, 48 h
786-0 renal = system: 786-0 renal
A498 renal = system: A498 renal
A549 NSCLC = system: A549 NSCLC
ACHN renal = system: ACHN renal
BT-549 breast = system: BT-549 breast
CAKI-1 renal = system: CAKI-1 renal
CCRF-CEM leukemia = system: CCRF-CEM leukemia
COLO 205 colon = system: COLO 205 colon
DU-145 prostate = system: DU-145 prostate
EKVX NSCLC = system: EKVX NSCLC
HCC-2998 colon = system: HCC-2998 colon
HCT-116 colon = system: HCT-116 colon
HCT-15 colon = system: HCT-15 colon
HL-60(TB) leukemia = system: HL-60(TB) leukemia
HOP-62 NSCLC = system: HOP-62 NSCLC
HOP-92 NSCLC = system: HOP-92 NSCLC
HS 578T breast = system: HS 578T breast
HT29 colon = system: HT29 colon
IGROV1 ovarian = system: IGROV1 ovarian
K-562 leukemia = system: K-562 leukemia
KM12 colon = system: KM12 colon
LOX IMVI melanoma = system: LOX IMVI melanoma
M14 melanoma = system: M14 melanoma
MALME-3M melanoma = system: MALME-3M melanoma
MCF7 breast = system: MCF7 breast
MDA-MB-435 = system: MDA-MB-435
MDA-N = system: MDA-N
MOLT-4 leukemia = system: MOLT-4 leukemia
NCI-H226 lung = system: NCI-H226 lung
NCI-H23 lung = system: NCI-H23 lung
NCI-H460 lung = system: NCI-H460 lung
NCI-H522 lung = system: NCI-H522 lung
NCI/ADR-RES ovarian = system: NCI/ADR-RES ovarian
OVCAR-3 ovarian = system: OVCAR-3 ovarian
OVCAR-4 ovarian = system: OVCAR-4 ovarian
OVCAR-5 ovarian = system: OVCAR-5 ovarian
OVCAR-8 ovarian = system: OVCAR-8 ovarian
PC-3 prostate = system: PC-3 prostate
RPMI-8226 leukemia = system: RPMI-8226 leukemia
RXF 393 renal = system: RXF 393 renal
SF-268 CNS = system: SF-268 CNS
SF-295 CNS = system: SF-295 CNS
SF-539 CNS = system: SF-539 CNS
SK-MEL-2 melanoma = system: SK-MEL-2 melanoma
SK-MEL-28 melanoma = system: SK-MEL-28 melanoma
SK-MEL-5 melanoma = system: SK-MEL-5 melanoma
SK-OV-3 ovarian = system: SK-OV-3 ovarian
SN12C renal = system: SN12C renal
SNB-19 CNS = system: SNB-19 CNS
SNB-75 CNS = system: SNB-75 CNS
SR leukemia = system: SR leukemia
SW-620 colon = system: SW-620 colon
T-47D breast = system: T-47D breast
TK-10 renal = system: TK-10 renal
U251 CNS = system: U251 CNS
UACC-257 melanoma = system: UACC-257 melanoma
UACC-62 melanoma = system: UACC-62 melanoma
UO-31 renal = system: UO-31 renal
MDA-MB-231 breast = system: MDA-MB-231 breast

CCOC(=O)Cn1nc2ccc(Nc3nc4ccccc4nc3C(=O)OCC)cc2n1
TGI (786-0 renal): > 100 µM
TGI (A498 renal): > 100 µM
TGI (A549 NSCLC): > 100 µM
TGI (ACHN renal): > 100 µM
TGI (BT-549 breast): > 100 µM
TGI (CAKI-1 renal): > 100 µM
TGI (CCRF-CEM leukemia): > 100 µM
TGI (COLO 205 colon): > 100 µM
TGI (DU-145 prostate): > 100 µM
TGI (EKVX NSCLC): > 100 µM
TGI (HCC-2998 colon): > 100 µM
TGI (HCT-116 colon): > 100 µM
TGI (HCT-15 colon): > 100 µM
TGI (HL-60(TB) leukemia): > 100 µM
TGI (HOP-62 NSCLC): > 100 µM
TGI (HOP-92 NSCLC): > 100 µM
TGI (HS 578T breast): > 100 µM
TGI (HT29 colon): > 100 µM
TGI (IGROV1 ovarian): > 100 µM
TGI (K-562 leukemia): > 100 µM
TGI (KM12 colon): > 100 µM
TGI (LOX IMVI melanoma): > 100 µM
TGI (M14 melanoma): > 100 µM
TGI (MALME-3M melanoma): > 100 µM
TGI (MCF7 breast): > 100 µM
TGI (MDA-MB-435): > 100 µM
TGI (MDA-N): > 100 µM
TGI (MOLT-4 leukemia): > 100 µM
TGI (NCI-H226 lung): > 100 µM
TGI (NCI-H23 lung): > 100 µM
TGI (NCI-H460 lung): > 100 µM
TGI (NCI-H522 lung): > 100 µM
TGI (NCI/ADR-RES ovarian): > 100 µM
TGI (OVCAR-3 ovarian): > 100 µM
TGI (OVCAR-4 ovarian): > 100 µM
TGI (OVCAR-5 ovarian): > 100 µM
TGI (OVCAR-8 ovarian): > 100 µM
TGI (PC-3 prostate): > 100 µM
TGI (RPMI-8226 leukemia): > 100 µM
TGI (RXF 393 renal): 58.2 µM
TGI (SF-268 CNS): > 100 µM
TGI (SF-295 CNS): > 100 µM
TGI (SF-539 CNS): 52.8 µM
TGI (SK-MEL-2 melanoma): > 100 µM
TGI (SK-MEL-28 melanoma): > 100 µM
TGI (SK-MEL-5 melanoma): > 100 µM
TGI (SK-OV-3 ovarian): > 100 µM
TGI (SN12C renal): > 100 µM
TGI (SNB-19 CNS): > 100 µM
TGI (SNB-75 CNS): 37.1 µM
TGI (SR leukemia): > 100 µM
TGI (SW-620 colon): > 100 µM
TGI (T-47D breast): > 100 µM
TGI (TK-10 renal): > 100 µM
TGI (U251 CNS): > 100 µM
TGI (UACC-257 melanoma): > 100 µM
TGI (UACC-62 melanoma): > 100 µM
TGI (UO-31 renal): > 100 µM

Nc1nc(Nc2ccc(Cl)cc2)sc1C(=O)c1cc2ccccc2oc1=O
TGI (786-0 renal): > 100 µM
TGI (A498 renal): 93.7 µM
TGI (A549 NSCLC): > 100 µM
TGI (ACHN renal): > 100 µM
TGI (BT-549 breast): > 100 µM
TGI (CCRF-CEM leukemia): > 100 µM
TGI (COLO 205 colon): > 100 µM
TGI (DU-145 prostate): > 100 µM
TGI (HCC-2998 colon): > 100 µM
TGI (HCT-116 colon): > 100 µM
TGI (HCT-15 colon): > 100 µM
TGI (HL-60(TB) leukemia): > 100 µM
TGI (HOP-62 NSCLC): 42.7 µM
TGI (HOP-92 NSCLC): > 100 µM
TGI (HS 578T breast): > 100 µM
TGI (HT29 colon): > 100 µM
TGI (IGROV1 ovarian): > 100 µM
TGI (K-562 leukemia): > 100 µM
TGI (KM12 colon): > 100 µM
TGI (LOX IMVI melanoma): > 100 µM
TGI (M14 melanoma): > 100 µM
TGI (MALME-3M melanoma): 76.8 µM
TGI (MCF7 breast): > 100 µM
TGI (MDA-MB-231 breast): > 100 µM
TGI (MDA-MB-435): > 100 µM
TGI (MDA-N): > 100 µM
TGI (NCI-H226 lung): > 100 µM
TGI (NCI-H23 lung): 89.5 µM
TGI (NCI-H460 lung): > 100 µM
TGI (NCI/ADR-RES ovarian): > 100 µM
TGI (OVCAR-3 ovarian): 38.6 µM
TGI (OVCAR-4 ovarian): > 100 µM
TGI (OVCAR-5 ovarian): > 100 µM
TGI (PC-3 prostate): > 100 µM
TGI (RPMI-8226 leukemia): > 100 µM
TGI (RXF 393 renal): > 100 µM
TGI (SF-268 CNS): > 100 µM
TGI (SF-539 CNS): > 100 µM
TGI (SK-MEL-2 melanoma): 75.8 µM
TGI (SK-MEL-28 melanoma): > 100 µM
TGI (SK-MEL-5 melanoma): > 100 µM
TGI (SK-OV-3 ovarian): > 100 µM
TGI (SN12C renal): > 100 µM
TGI (SNB-19 CNS): > 100 µM
TGI (SNB-75 CNS): 68.8 µM
TGI (SW-620 colon): > 100 µM
TGI (T-47D breast): > 100 µM
TGI (TK-10 renal): > 100 µM
TGI (U251 CNS): > 100 µM
TGI (UACC-257 melanoma): > 100 µM
TGI (UACC-62 melanoma): > 100 µM
TGI (UO-31 renal): > 100 µM
